{
  "source": "ChEMBL document CHEMBL1132763",
  "about": "“8-Aminocyclazocine analogues: synthesis and structure-activity relationships” (Bioorg Med Chem Lett, 2000)",
  "key": {"[1]": {"target": "Mu-type opioid receptor (Cavia porcellus, UniProt P97266)", "sequence (P97266 whole entry)": "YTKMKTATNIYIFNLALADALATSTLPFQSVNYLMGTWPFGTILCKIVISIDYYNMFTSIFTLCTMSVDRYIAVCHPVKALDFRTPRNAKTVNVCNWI", "assay": "Binding affinity was determined against Opioid receptor mu 1 obtained from guinea pig brain membranes using [3H]DAMGO as radioligand"}, "[2]": {"target": "Kappa-type opioid receptor (Cavia porcellus, UniProt P41144)", "sequence (P41144 whole entry)": "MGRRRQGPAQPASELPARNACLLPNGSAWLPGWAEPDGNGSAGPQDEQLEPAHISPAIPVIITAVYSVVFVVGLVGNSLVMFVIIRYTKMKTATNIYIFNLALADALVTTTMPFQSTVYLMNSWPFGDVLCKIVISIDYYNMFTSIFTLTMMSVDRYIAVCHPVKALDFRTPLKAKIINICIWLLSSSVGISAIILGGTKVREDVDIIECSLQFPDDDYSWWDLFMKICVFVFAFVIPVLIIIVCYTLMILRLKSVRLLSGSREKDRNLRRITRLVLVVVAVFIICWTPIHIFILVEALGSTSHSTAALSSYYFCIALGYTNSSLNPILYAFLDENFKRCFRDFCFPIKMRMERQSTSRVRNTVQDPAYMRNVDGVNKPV", "assay": "Binding affinity was determined against Opioid receptor kappa 1 obtained from guinea pig brain membranes using [3H]U-69593 as radioligand"}, "[3]": {"assay": "Binding affinity was determined against Opioid receptor delta 1 obtained from guinea pig brain membranes using [3H]naltrindole as radioligand"}},
  "data": [
    {"smiles": "C[C@@H]1[C@@H]2Cc3ccc(O)cc3[C@@]1(C)CN2CC1CC1", "values": [
      {"measurement": "Ki", "setting": "[1]", "value": 0.36, "unit": "µM"},
      {"measurement": "Ki", "setting": "[2]", "value": 0.076, "unit": "µM"}
    ]},
    {"smiles": "CNc1ccc2c(c1)[C@@]1(C)CCN(CC3CC3)C(C2)[C@@H]1C", "note": "(mixture of isomers)", "values": [
      {"measurement": "Ki", "setting": "[2]", "value": 0.0085, "unit": "µM"}
    ]},
    {"smiles": "C[C@H]1C2Cc3ccc(N(C)Cc4ccccc4)cc3[C@@]1(C)CCN2CC1CC1", "note": "(mixture of isomers)", "values": [
      {"measurement": "Ki", "setting": "[1]", "value": 0.056, "unit": "µM"},
      {"measurement": "Ki", "setting": "[2]", "value": 0.044, "unit": "µM"}
    ]},
    {"smiles": "C[C@H]1C2Cc3ccc(N(C)C)cc3[C@@]1(C)CCN2CC1CC1", "note": "(mixture of isomers)", "values": [
      {"measurement": "Ki", "setting": "[1]", "value": 0.082, "unit": "µM"},
      {"measurement": "Ki", "setting": "[2]", "value": 0.033, "unit": "µM"}
    ]},
    {"smiles": "C[C@H]1C2Cc3ccc(NCc4ccccc4)cc3[C@@]1(C)CCN2CC1CC1", "note": "(mixture of isomers)", "values": [
      {"measurement": "Ki", "setting": "[1]", "value": 0.0015, "unit": "µM"},
      {"measurement": "Ki", "setting": "[2]", "value": 0.0047, "unit": "µM"}
    ]},
    {"smiles": "C[C@H]1C2Cc3ccc(N)cc3[C@@]1(C)CCN2CC1CC1", "note": "(mixture of isomers)", "values": [
      {"measurement": "Ki", "setting": "[1]", "value": 0.0095, "unit": "µM"},
      {"measurement": "Ki", "setting": "[2]", "value": 0.0041, "unit": "µM"}
    ]},
    {"smiles": "C[C@H]1C2Cc3ccc(N4CCCCC4)cc3[C@@]1(C)CCN2CC1CC1", "note": "(mixture of isomers)", "values": [
      {"measurement": "Ki", "setting": "[1]", "value": 0.95, "unit": "µM"},
      {"measurement": "Ki", "setting": "[2]", "value": 0.3, "unit": "µM"}
    ]},
    {"smiles": "C[C@H]1C2Cc3ccc(N4CCOCC4)cc3[C@@]1(C)CCN2CC1CC1", "note": "(mixture of isomers)", "values": [
      {"measurement": "Ki", "setting": "[1]", "value": 0.65, "unit": "µM"},
      {"measurement": "Ki", "setting": "[2]", "value": 0.56, "unit": "µM"}
    ]},
    {"smiles": "C[C@H]1C2Cc3ccc(N4CCN(C)CC4)cc3[C@@]1(C)CCN2CC1CC1", "note": "(mixture of isomers)", "values": [
      {"measurement": "Ki", "setting": "[1]", "value": 0.021, "unit": "µM"},
      {"measurement": "Ki", "setting": "[2]", "value": 0.0088, "unit": "µM"}
    ]},
    {"smiles": "CC(C)Nc1ccc2c(c1)[C@@]1(C)CCN(CC3CC3)C(C2)[C@@H]1C", "note": "(mixture of isomers)", "values": [
      {"measurement": "Ki", "setting": "[1]", "value": 0.24, "unit": "µM"},
      {"measurement": "Ki", "setting": "[2]", "value": 0.078, "unit": "µM"}
    ]},
    {"smiles": "CCNc1ccc2c(c1)[C@@]1(C)CCN(CC3CC3)C(C2)[C@@H]1C", "note": "(mixture of isomers)", "values": [
      {"measurement": "Ki", "setting": "[1]", "value": 0.0051, "unit": "µM"},
      {"measurement": "Ki", "setting": "[2]", "value": 0.0033, "unit": "µM"}
    ]},
    {"smiles": "C[C@H]1C2Cc3ccc(N4CCCC4)cc3[C@@]1(C)CCN2CC1CC1", "note": "(mixture of isomers)", "values": [
      {"measurement": "Ki", "setting": "[2]", "value": 0.41, "unit": "µM"}
    ]},
    {"smiles": "C[C@H]1C2Cc3ccc(NCCc4ccccc4)cc3[C@@]1(C)CCN2CC1CC1", "note": "(mixture of isomers)", "values": [
      {"measurement": "Ki", "setting": "[1]", "value": 0.009, "unit": "µM"},
      {"measurement": "Ki", "setting": "[2]", "value": 0.011, "unit": "µM"}
    ]},
    {"smiles": "C[C@H]1[C@H]2Cc3ccc(Nc4ccccc4)cc3[C@@]1(C)CCN2CC1CC1", "note": "(racemic)", "values": [
      {"measurement": "Ki", "setting": "[1]", "value": 0.0013, "unit": "µM"},
      {"measurement": "Ki", "setting": "[2]", "value": 0.00083, "unit": "µM"}
    ]},
    {"smiles": "C[C@H]1[C@H]2Cc3ccc(O)cc3[C@@]1(C)CCN2CC1CC1", "note": "(racemic)", "values": [
      {"measurement": "Ki", "setting": "[2]", "value": 0.00018, "unit": "µM"}
    ]},
    {"smiles": "C[C@H]1C2Cc3ccc(N)cc3[C@@]1(C)CCN2CC1CC1", "note": "(stereo in doubt; (+)-6)", "values": [
      {"measurement": "Ki", "setting": "[1]", "value": 0.78, "unit": "µM"},
      {"measurement": "Ki", "setting": "[2]", "value": 0.506, "unit": "µM"}
    ]},
    {"smiles": "C[C@H]1[C@H]2Cc3ccc(Nc4ccccc4)cc3[C@@]1(C)CCN2CC1CC1", "note": "(stereo in doubt; (+)-12)", "values": [
      {"measurement": "Ki", "setting": "[1]", "value": 0.046, "unit": "µM"},
      {"measurement": "Ki", "setting": "[2]", "value": 0.027, "unit": "µM"}
    ]},
    {"smiles": "C[C@H]1C2Cc3ccc(N)cc3[C@@]1(C)CCN2CC1CC1", "note": "(stereo in doubt; (-)-5)", "values": [
      {"measurement": "Ki", "setting": "[1]", "value": 0.0018, "unit": "µM"},
      {"measurement": "Ki", "setting": "[2]", "value": 0.0012, "unit": "µM"}
    ]},
    {"smiles": "C[C@H]1[C@H]2Cc3ccc(Nc4ccccc4)cc3[C@@]1(C)CCN2CC1CC1", "note": "(stereo in doubt; (-)-11)", "values": [
      {"measurement": "Ki", "setting": "[1]", "value": 0.0011, "unit": "µM"},
      {"measurement": "Ki", "setting": "[2]", "value": 0.00054, "unit": "µM"}
    ]},
    {"smiles": "C[C@H]1C2Cc3ccc(NCc4ccccc4)cc3[C@@]1(C)CCN2CC1CC1", "note": "(stereo in doubt; (-)-14)", "values": [
      {"measurement": "Ki", "setting": "[1]", "value": 0.00067, "unit": "µM"},
      {"measurement": "Ki", "setting": "[2]", "value": 0.0021, "unit": "µM"}
    ]},
    {"smiles": "C[C@H]1[C@H]2Cc3ccc(O)cc3[C@]1(C)CCN2CC1CC1", "note": "[CYCLAZOCINE]", "values": [
      {"measurement": "Ki", "setting": "[3]", "value": 0.00058, "unit": "µM"}
    ]}
  ]
}
